One data set deals with SARS-CoV-2, USA-WA1/2020. The data set can be described thus: Antiviral assay: inhibition of SARS-CoV-2 cytopathic effect (neutral red) in Vero 76 cells. In kind it is cell-based. The note with it: read-out: Anti-viral Assay (EC50).
In another data set the test system is NAD in murine liver. Put plainly: In vivo NAD assay, mouse liver. To be noted: 500 mg/kg oral, mice. Here is the method:
FIG. 1 provides the mean composite NAD assayed concentration in mouse liver cells. The Y-axis is concentration in mmol/kg. […] The left-most bar at each time point is vehicle, the central bar is reference compound nicotinamide mononucleotide (NMN), and the right-most bar at each time point is Compound 2. Each compound is administered orally to mice at 500 mg/kg.
(§1) In vivo NAD and NAAD assay: Animals were dosed with 500 mg/kg of test compound or reference compound in vehicle.

For data set [1], the system named is NAAD in murine skeletal muscle. Put plainly: In vivo NAAD assay, mouse skeletal muscle. The note with it: 500 mg/kg oral, mice, 8 hour time point, FIG. 2. Here is the method:
FIG. 2 provides the mean composite NAAD assayed concentration in mouse skeletal muscle cells. The Y-axis is concentration in mmol/kg. […] The left-most bar at each time point is vehicle, the central bar is reference compound nicotinamide mononucleotide (NMN), and the right-most bar at each time point is Compound 2. Each compound is administered orally to mice at 500 mg/kg.
as §1

[2] abbreviates: concentration inhibiting CPE by 50%; i) and ii) are separate determinations.

pEC50: −log10 of the molar value. Like-named read-outs stand apart in the source and are kept apart here.

A word on the pEC50: it is the EC50 on a negative log10 scale, so that one unit is a factor of ten. In the case of `N#C[C@@]1(c2ccc3c(N)ncnn23)O[C@H](COP(=O)([O-])OC[C@H]2O[C@@H]([n+]3cccc(C(=O)O)c3)[C@H](O)[C@@H]2O)[C@@H](O)[C@H]1O` [Compound 1, ((2R,3S,4R,5R)-5-(4-aminopyrrolo[2,1-f][1,2,4]triazin-7-yl)-5-cyano-3,4-dihydroxytetrahydrofuran-2-yl)methyl (((2R,3S,4R,5R)-5-(3-carboxy-1λ^4-pyridin-1-yl)-3,4-dihydroxytetrahydrofuran-2-yl)methyl)_phosphate], the pEC50 in the data set with SARS-CoV-2, USA-WA1/2020 (Severe acute respiratory syndrome coronavirus 2, Vero 76, 120 h, concentration inhibiting CPE by 50%; Vero 76 cells, neutral red, day 5 post-infection; i) and ii) are separate determinations) was 4.77; with SARS-CoV-2, USA-WA1/2020 (concentration inhibiting CPE by 50%; Vero 76 cells, neutral red, day 5 post-infection; i) and ii) are separate determinations), 4.51.
Consider `NC(=O)c1ccc[n+]([C@@H]2O[C@H](COP(=O)([O-])O)[C@@H](O)[C@H]2O)c1` [Nicotinamide mononucleotide (NMN), Nicotinamide mononucleotide, reference compound], for which, in the data set on SARS-CoV-2, USA-WA1/2020 (setting [2]), the negative-log EC50 (pEC50) is below 2.70.
With `CCC(CC)COC(=O)[C@H](C)N[P@](=O)(OC[C@H]1O[C@@](C#N)(c2ccc3c(N)ncnn23)[C@H](O)[C@@H]1O)Oc1ccccc1` [Remdesivir, reference compound], in the data set with SARS-CoV-2, USA-WA1/2020 (Severe acute respiratory syndrome coronavirus 2, Vero 76, 120 h; concentration inhibiting CPE by 50%; i) and ii) are separate determinations), the pEC50 was 5.22 to 5.72.
For “((2R,3S,4R,5R)-5-(3-((((2R,3S,4R,5R)-5-(4-aminopyrrolo[2,1-f][1,2,4]triazin-7-yl)-5-cyano-3,4-dihydroxytetrahydrofuran-2-yl)methoxy)carbonyl)-1λ^4-pyridin-1-yl)-3,4-dihydroxytetrahydrofuran-2-yl)methyl hydrogen phosphate [Compound 2]”, the Oral availability result in the data set on NAD in murine liver is “orally available”. Besides, the “NAD level in murine liver” value with NAD in murine liver (8 hour time point, FIG. 1) was “boosted”. The “NAAD level in murine skeletal muscle” value in data set [1] is recorded as “boosted”.
Regarding “NAR-2′C-Methyl-6-O-methyl-5′-guanosine ester [Compound 6]”, the pEC50 in the data set with SARS-CoV-2, USA-WA1/2020 (setting [2]) was below 4.00.
Consider “NAR-2′C-methyl 5′-uridine ester [Compound 4]”, for which, in the data set on SARS-CoV-2, USA-WA1/2020 (setting [2]), the negative-log EC50 (pEC50) is below 4.00.
Consider “NAR-2′C-methyl-5′-cytidine ester [Compound 5]”, for which, in the data set on SARS-CoV-2, USA-WA1/2020 (setting [2]), the negative-log EC50 (pEC50) was below 4.00.
Same read-out and setting: to “NAR-2′C-methyl-5′-guanosine ester [Compound 3]” belongs below 4.00.

The values are drawn from patent US12516081B2, “Anti-viral compounds and methods of use” (Metro International Biotech, LLC, priority 2020, dated 2026).
